{"source": "patent US20030087014A1", "about": "“Enhanced thermal inactivation of pathogen in a nutriment by acidulant” (Mionix Corp., priority 2001, published 2003)", "test_system": "human skin", "experiment": "Contact of acidic solution with human skin and nose", "settings": "solution with a pH of less than 0.5"}
{"smiles": "O=S(=O)(O)O", "note": "[sulfuric acid]", "values": [{"measurement": "Irritation of hand put into the solution", "value": "an irritation would occur within a relatively short span of time"}]}
